Reference: patent US11957696B2 (Propella Therapeutics, Inc., priority 2021, dated 2024)

What was measured:
[1] = format: physicochemical
Procedure: The solids were filtered and analyzed by XRD to determine the resulting form(s). The solvents used in this study include: water, acetonitrile, isopropyl ether/acetonitrile (1:4), 2-butanol/water (1:1), 1-propanol/water (1:1), t-butanol/water (1:1), ethanol/water (1:1), THF/water (1:1), acetone/water (1:1), dioxane/water (1:1), 2-butanone/water (1:1), methanol, DMF/water (1:1), ethyl acetate/water (1:1), and heptane.
A competitive study was also carried out. […] Samples were stirred for 3 days and filtered.

[2] = IM injection of aqueous suspension and vegetable oil solution of abiraterone acetate; format: in vivo; conditions: vegetable oil solution compared with aqueous suspension, rats
Procedure: Typically, the abiraterone prodrugs of the present disclosure are formulated as a non-aqueous solution or suspension. […] For example, as detailed herein, IM injections of an aqueous suspension and a vegetable oil solution of the abiraterone acetate prodrug were evaluated in rats. […] Accordingly, in some embodiments, the abiraterone prodrug formulations herein can include an abiraterone prodrug of the present disclosure (e.g., compound of Formula I or II) dissolved or dispersed in a pharmaceutically acceptable carrier. In some embodiments, the pharmaceutically acceptable carrier can be any suitable nonaqueous vehicle suitable for injection, such as those described in U.S. Pharmacopeia. In some embodiments, the pharmaceutically acceptable carrier can be a pharmaceutically acceptable oil, e.g., a vegetable oil, castor oil, corn oil, sesame oil, cottonseed oil, peanut oil, poppy seed oil, tea seed oil, or soybean oil. In some embodiments, the pharmaceutically acceptable oil can be oils (e.g., described herein), suitable for use as vehicles for injection, e.g., meeting the criteria as described in the corresponding U.S. Pharmacopeia monograph. In some embodiments, the pharmaceutically acceptable oil can be an oil of vegetable origin suitable for use as vehicles for injection. […]

| SMILES | thermodynamic stability of polymorph [1] | blood plasma levels and duration of exposure of abiraterone [2] |
| --- | --- | --- |
| CCCCCCCCCC(=O)O[C@H]1CC[C@@]2(C)C(=CC[C@@H]3[C@@H]2CC[C@]2(C)C(c4cccnc4)=CC[C@@H]32)C1 [Form A, abiraterone decanoate] | thermodynamically stable form under ambient conditions |  |
| CC(=O)O[C@H]1CC[C@@]2(C)C(=CC[C@@H]3[C@@H]2CC[C@]2(C)C(c4cccnc4)=CC[C@@H]32)C1 [abiraterone acetate, (3β)-17-(3-Pyridyl)androsta-5, acetate] |  | highest blood plasma levels and the longest duration of exposure |
